Values quoted from earlier work in patent US11771784B2, “Material, device, and method for deactivating pathogen in aerosol, and methods for manufacturing thereof” (priority 2016, dated 2023).

Details: in water

[Cl-].[K+] [potassium chloride]
maximum solubility limit: about 355 g/l

(sodium/potassium) tartrates
maximum solubility limit: about 660 g/l
